Patent publication US6727270B2, “Pyrrolylalkylidene-hydrazinecarboximidamide derivatives as 5-hydroxytryptamine-6 ligands” (Wyeth, priority 2002, dated 2004)
Where a name gives a salt, the structure may show the parent alone.

Molecular target: T1, human cloned 5-HT6 receptors (Homo sapiens, UniProt P50406)
T1 construct: expressed in transfected cells; host or cells: Hela cells
Experiment: 5-HT6 binding affinity, [3H]-LSD displacement on membranes of Hela cells expressing human cloned 5-HT6 receptors
Settings: [3H]-LSD 3.0 nM, Hela cell membranes, 120 min at room temperature
Method: Comparative Evaluation of 5-HT6 Binding Affinity of Test Compounds
The affinity of test compounds for the serotonin 5-HT6 receptor is evaluated in the following manner. Cultured Hela cells expressing human cloned 5-HT6 receptors are harvested and centrifuged at low speed (1,000×g) for 10.0 min to remove the culture media. The harvested cells are suspended in half volume of fresh physiological phosphate buffered saline solution and recentrifuged at the same speed. This operation is repeated. The collected cells are then homogenized in ten volumes of 50 mM Tris.HCl (pH 7.4) and 0.5 mM EDTA. The homogenate is centrifuged at 40,000×g for 30.0 min and the precipitate is collected. The obtained pellet is resuspended in 10 volumes of Tris.HCl buffer and recentrifuged at the same speed. The final pellet is suspended in a small volume of Tris.HCl buffer and the tissue protein content is determined in aliquots of 10-25 μl volumes. Bovine Serum Albumin is used as the standard in the protein determination according to the method described in Lowry et al., J. Biol. Chem., 193:265 (1951). The volume of the suspended cell membranes is adjusted to give a tissue protein concentration of 1.0 mg/ml of suspension. The prepared membrane suspension (10 times concentrated) is aliquoted in 1.0 ml volumes and stored at −70° C. until used in subsequent binding experiments.
The reaction is allowed to proceed in the dark for 120 min at room temperature, at which time, the bound ligand-receptor complex is filtered off on a 96 well unifilter with a Packard Filtermate® 196 Harvester. The bound complex caught on the filter disk is allowed to air dry and the radioactivity is measured in a Packard TopCount® equipped with six photomultiplier detectors, after the addition of 40.0 μl Microscint®-20 scintillant to each shallow well. The unifilter plate is heat-sealed and counted in a PackardTopCount® with a tritium efficiency of 31.0%.
Binding in the presence of varying concentrations of test compound is expressed as a percentage of specific binding in the absence of test compound. The results are plotted as log % bound versus log concentration of test compound. […] A linear regression line of data points is plotted, from which the IC50 value is determined and the Ki value is determined based upon the following equation: […]
where L is the concentration of the radioactive ligand used and KD is the dissociation constant of the ligand for the receptor, both expressed in nM.

T1 sequence (P50406 whole entry): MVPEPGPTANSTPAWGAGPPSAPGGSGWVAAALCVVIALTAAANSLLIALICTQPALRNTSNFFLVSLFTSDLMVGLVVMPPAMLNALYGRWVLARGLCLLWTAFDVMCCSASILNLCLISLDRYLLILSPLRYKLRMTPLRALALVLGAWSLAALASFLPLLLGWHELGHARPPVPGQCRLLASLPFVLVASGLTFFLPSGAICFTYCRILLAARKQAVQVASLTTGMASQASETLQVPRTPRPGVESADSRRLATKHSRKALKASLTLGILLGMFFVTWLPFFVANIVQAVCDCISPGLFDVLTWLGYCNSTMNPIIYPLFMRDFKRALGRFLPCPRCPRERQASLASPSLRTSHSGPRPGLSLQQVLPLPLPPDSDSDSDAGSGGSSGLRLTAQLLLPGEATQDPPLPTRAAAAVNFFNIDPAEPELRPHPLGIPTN

Row | Molecule | Ki [nM]
1 | 2-{(E)-1-[1-(naphthylsulfonyl)-1H-pyrrol-3-yl]ethylidene}-1-hydrazine-carboximidamide [Example 16] | 2
2 | N=C(N)N/N=C1\CCCc2c1ccn2S(=O)(=O)c1ccccc1 [Example 7, 2-[1-(Phenylsulfonyl)-1,5,6,7-tetrahydro-4H-indol-4-ylidine]-1-hydrazinecarboximidamide Hydrochloride] | 37
3 | C/C(=N\NC(=N)N)c1c(C)cn(S(=O)(=O)c2ccccc2)c1C [Example 13, 2-{(E)-1-[2,4-Dimethyl-1-(phenylsulfonyl)-1H-pyrrol-3-yl]ethylidine} hydrazinecarboximidamide Hydrochloride] | 6
4 | C/C(=N\NC(=N)N)c1ccn(S(=O)(=O)c2ccccc2)c1 [Example 14, 2-{(E)-1-[1-(phenylsulfonyl)-1H-pyrrol-3-yl]ethylidene}hydrazinecarboximidamide] | 1.5
5 | C/C(=N\NC(=N)N)c1ccn(S(=O)(=O)c2sc3ccc(Cl)cc3c2C)c1 [Example 17] | 32
6 | C/C(=N\NC(=N)N)c1ccn(S(=O)(=O)c2sc(N)nc2C)c1 [Example 19, 2-((E)-1-{1-[(2-amino-4-methyl-1,3-thiazol-5-yl)sulfonyl]-1H-pyrrol-3-yl}ethylidene)-1-hydrazinecarboximidamide] | 3.75

The next lines start with the values.

Row | Ki [nM] | Molecule
7 | 5.5 | C/C(=N\NC(=N)N)c1ccn(S(=O)(=O)c2ccc(C)cc2)c1 [Example 15, 2-{(E)-1-[1-(4-methylphenylsulfonyl)-1H-pyrrol-3-yl]ethylidene}hydrazine-carboximidamide]
8 | 0.6 | C/C(=N\NC(=N)N)c1ccn(S(=O)(=O)c2ccc(N)cc2)c1 [Example 18, 2-((E)-1-{1-[(4-aminophenyl)sulfonyl]-1H-pyrrol-3-yl}ethylidene)-1-hydrazine-carboximidamide]

System: not given
Experiment: not given
Settings: not given

Row | Molecule | melting point
9 | C/C(=N\NC(=N)N)c1ccn(S(=O)(=O)c2ccccc2)c1 (as salt: hydrochloride) [Example 14, 2-{(E)-1-[1-(phenylsulfonyl)-1H-pyrrol-3-yl]ethylidene}hydrazinecarboximidamide] | 220 to 221 °C
10 | C/C(=N\NC(=N)N)c1ccn(S(=O)(=O)c2sc3ccc(Cl)cc3c2C)c1 (as salt: hydrochloride) [Example 17] | 285 °C (dec.)
11 | C/C(=N\NC(=N)N)c1ccn(S(=O)(=O)c2sc(N)nc2C)c1 (as salt: hydrochloride) [Example 19, 2-((E)-1-{1-[(2-amino-4-methyl-1,3-thiazol-5-yl)sulfonyl]-1H-pyrrol-3-yl}ethylidene)-1-hydrazinecarboximidamide] | 225 °C (dec.)

Now from value to molecule:

Row | melting point | Molecule
12 | 277 to 279 °C | C/C(=N\NC(=N)N)c1ccn(S(=O)(=O)c2ccc(C)cc2)c1 (as salt: hydrochloride) [Example 15, 2-{(E)-1-[1-(4-methylphenylsulfonyl)-1H-pyrrol-3-yl]ethylidene}hydrazine-carboximidamide]
13 | 198 to 200 °C | C/C(=N\NC(=N)N)c1ccn(S(=O)(=O)c2ccc(N)cc2)c1 (as salt: hydrochloride) [Example 18, 2-((E)-1-{1-[(4-aminophenyl)sulfonyl]-1H-pyrrol-3-yl}ethylidene)-1-hydrazine-carboximidamide]
